Patent US9340590B2 (priority 2011, dated 2016)
Like-named read-outs stand apart in the source and are kept apart here. Positions of bridges follow the written chain, without caps; N, C: chain ends. Non-standard residues stand in square brackets, D forms with d. Residues, ends and D or L forms follow the SMILES beside them. Phe(4-COOH) = N[C@@H](Cc1ccc(C(=O)O)cc1)C(=O)O

Key:
Test in all cases: cell-based
[1] = target: hNav1.3 (Homo sapiens, UniProt Q9NY46); details: IonWorks Quattro, read-out: IWQ Use Nav1.3
[2] = target: hNav1.7 (Homo sapiens, UniProt Q15858); assay type: cell-based
[3] = target: hNav1.5 (Homo sapiens, UniProt Q14524); details: IonWorks Quattro, read-out: IWQ Use Nav1.5
[4] = IonWorks Quattro, use-dependent block, hNav1.7, read-out: IWQ Use Nav1.7
[5] = clamped to −110 mV, depolarized to −10 mV, 5 min after compound, n=2

Chain of hNav1.5 (Q14524 whole entry, looked up): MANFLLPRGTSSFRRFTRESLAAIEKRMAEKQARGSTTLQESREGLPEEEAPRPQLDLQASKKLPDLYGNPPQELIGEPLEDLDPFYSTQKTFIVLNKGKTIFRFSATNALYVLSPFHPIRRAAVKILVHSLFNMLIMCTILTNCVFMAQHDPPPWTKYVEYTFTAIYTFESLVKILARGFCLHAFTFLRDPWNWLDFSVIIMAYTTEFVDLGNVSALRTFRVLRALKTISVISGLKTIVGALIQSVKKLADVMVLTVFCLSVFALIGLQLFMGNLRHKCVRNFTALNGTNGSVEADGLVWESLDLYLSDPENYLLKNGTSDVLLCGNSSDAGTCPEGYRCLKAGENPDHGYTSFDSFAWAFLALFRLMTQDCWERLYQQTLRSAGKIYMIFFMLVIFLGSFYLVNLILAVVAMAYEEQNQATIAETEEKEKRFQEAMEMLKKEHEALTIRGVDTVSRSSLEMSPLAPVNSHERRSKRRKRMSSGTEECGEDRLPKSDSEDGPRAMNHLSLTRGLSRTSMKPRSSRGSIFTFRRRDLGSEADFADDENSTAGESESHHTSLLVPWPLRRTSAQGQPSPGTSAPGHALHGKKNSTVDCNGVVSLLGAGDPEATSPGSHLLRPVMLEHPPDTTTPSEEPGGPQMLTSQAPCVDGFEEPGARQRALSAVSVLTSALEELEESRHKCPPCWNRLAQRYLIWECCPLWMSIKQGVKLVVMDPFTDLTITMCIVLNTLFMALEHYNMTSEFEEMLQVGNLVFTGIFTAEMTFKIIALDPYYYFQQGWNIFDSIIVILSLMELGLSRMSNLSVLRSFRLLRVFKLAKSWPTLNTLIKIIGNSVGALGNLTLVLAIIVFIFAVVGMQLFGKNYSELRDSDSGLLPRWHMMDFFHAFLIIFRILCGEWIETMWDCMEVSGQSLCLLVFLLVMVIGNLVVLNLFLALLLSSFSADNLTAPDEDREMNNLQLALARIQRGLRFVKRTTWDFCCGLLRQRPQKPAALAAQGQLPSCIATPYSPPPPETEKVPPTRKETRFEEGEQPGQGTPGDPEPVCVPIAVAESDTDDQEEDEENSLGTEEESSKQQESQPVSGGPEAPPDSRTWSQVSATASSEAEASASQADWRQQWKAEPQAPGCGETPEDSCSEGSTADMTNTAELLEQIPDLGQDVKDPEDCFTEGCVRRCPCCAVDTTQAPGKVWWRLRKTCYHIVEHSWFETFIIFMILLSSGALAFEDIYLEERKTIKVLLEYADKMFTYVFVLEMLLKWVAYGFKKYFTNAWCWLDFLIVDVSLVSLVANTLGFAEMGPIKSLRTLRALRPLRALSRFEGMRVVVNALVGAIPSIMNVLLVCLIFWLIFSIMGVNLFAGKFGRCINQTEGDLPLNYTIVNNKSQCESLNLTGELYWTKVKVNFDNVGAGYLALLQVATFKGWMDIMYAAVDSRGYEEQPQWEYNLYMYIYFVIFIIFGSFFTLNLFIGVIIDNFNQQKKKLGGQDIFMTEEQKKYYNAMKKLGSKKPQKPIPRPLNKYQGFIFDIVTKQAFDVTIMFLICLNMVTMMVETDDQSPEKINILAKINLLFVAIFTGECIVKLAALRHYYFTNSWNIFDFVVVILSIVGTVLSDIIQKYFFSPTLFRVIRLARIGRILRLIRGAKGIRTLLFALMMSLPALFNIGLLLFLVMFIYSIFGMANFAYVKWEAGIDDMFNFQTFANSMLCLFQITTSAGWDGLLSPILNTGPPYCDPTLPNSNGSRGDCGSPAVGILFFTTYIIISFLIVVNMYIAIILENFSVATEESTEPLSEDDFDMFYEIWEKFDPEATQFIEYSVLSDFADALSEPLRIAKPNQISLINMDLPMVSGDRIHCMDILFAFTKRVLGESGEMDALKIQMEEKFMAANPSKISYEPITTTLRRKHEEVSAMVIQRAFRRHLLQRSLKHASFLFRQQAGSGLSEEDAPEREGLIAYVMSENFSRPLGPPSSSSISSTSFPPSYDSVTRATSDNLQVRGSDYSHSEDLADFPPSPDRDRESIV
Chain of hNav1.7 (Q15858 whole entry, looked up): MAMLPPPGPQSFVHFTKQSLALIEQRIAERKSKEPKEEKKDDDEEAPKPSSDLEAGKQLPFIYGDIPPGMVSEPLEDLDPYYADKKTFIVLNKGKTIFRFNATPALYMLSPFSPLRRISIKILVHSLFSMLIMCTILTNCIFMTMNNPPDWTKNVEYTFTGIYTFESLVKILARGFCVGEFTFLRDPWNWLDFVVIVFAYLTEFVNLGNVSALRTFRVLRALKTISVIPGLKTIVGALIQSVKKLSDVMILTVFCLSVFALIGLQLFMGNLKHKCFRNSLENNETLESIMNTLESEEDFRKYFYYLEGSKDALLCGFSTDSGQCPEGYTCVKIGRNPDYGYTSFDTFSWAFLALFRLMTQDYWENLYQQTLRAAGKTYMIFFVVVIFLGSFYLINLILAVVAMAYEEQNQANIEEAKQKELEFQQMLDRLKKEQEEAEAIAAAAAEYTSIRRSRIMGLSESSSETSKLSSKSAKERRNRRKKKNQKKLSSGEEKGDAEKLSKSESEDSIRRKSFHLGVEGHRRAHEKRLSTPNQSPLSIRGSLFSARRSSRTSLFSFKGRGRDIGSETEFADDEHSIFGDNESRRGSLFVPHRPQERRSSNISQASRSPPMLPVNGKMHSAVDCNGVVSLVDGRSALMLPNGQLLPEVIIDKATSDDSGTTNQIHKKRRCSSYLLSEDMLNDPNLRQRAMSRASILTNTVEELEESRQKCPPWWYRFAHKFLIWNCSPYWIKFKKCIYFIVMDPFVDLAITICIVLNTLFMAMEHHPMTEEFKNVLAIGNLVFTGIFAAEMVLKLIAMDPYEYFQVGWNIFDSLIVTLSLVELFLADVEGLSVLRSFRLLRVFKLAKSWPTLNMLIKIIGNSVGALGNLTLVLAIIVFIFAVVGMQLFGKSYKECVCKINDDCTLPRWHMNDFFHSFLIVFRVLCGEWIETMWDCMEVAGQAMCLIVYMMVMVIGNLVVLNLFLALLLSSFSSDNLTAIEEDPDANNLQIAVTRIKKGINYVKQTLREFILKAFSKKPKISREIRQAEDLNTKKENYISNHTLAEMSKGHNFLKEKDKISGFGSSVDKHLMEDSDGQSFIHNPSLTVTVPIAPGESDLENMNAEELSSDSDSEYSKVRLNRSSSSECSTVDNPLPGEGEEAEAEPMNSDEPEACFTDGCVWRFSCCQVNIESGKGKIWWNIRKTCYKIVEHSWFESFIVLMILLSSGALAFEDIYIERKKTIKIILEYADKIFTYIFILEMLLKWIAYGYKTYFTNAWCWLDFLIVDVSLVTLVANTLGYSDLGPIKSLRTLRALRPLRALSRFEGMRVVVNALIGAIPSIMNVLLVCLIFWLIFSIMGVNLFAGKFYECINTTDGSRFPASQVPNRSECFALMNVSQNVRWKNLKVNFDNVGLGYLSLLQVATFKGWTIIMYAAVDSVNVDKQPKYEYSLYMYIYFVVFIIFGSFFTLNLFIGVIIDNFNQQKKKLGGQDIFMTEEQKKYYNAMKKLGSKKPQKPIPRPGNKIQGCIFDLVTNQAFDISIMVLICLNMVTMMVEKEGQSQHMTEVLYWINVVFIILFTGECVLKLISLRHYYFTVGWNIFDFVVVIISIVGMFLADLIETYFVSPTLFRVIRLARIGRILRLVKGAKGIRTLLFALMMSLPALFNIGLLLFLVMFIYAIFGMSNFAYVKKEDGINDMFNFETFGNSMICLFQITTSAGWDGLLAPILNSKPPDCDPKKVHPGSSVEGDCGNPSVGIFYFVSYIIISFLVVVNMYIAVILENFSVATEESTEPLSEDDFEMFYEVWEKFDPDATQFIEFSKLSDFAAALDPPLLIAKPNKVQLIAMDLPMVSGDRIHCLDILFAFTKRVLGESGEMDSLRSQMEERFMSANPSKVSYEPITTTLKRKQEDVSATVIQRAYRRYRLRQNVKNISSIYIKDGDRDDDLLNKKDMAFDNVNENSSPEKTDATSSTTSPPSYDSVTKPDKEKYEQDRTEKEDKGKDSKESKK

`CC[C@H](C)[C@@H]1NC(=O)[C@@H]2CSSC[C@@H]3NC(=O)[C@H](C(C)C)NC(=O)[C@H](CC(C)C)NC(=O)[C@H](CC(N)=O)NC(=O)[C@@H]4CCCN4C(=O)[C@H](CCCNC(=N)N)NC(=O)[C@H](CSSC[C@H](NC(=O)[C@@H](N)CC(=O)O)C(=O)N[C@@H](CC(C)C)C(=O)NCC(=O)N[C@@H](C)C(=O)N[C@@H](Cc4ccccc4)C(=O)N[C@@H](CCCNC(=N)N)C(=O)N[C@@H](CCCCN)C(=O)N2)NC(=O)[C@H](CSSC[C@@H](C(=O)N[C@@H](CCCCN)C(=O)N[C@@H](Cc2ccc(O)cc2)C(=O)N[C@H](C(=O)N[C@@H](Cc2ccccc2)C(=O)O)C(C)C)NC(=O)[C@H](Cc2c[nH]c4ccccc24)NC(=O)[C@H](CCCNC(=N)N)NC(=O)[C@H](Cc2c[nH]cn2)NC(=O)[C@H]([C@@H](C)O)NC(=O)[C@H](CCCNC(=N)N)NC(=O)[C@H](CO)NC3=O)NC(=O)[C@H](CCCCN)NC(=O)[C@H](CC(=O)O)NC(=O)[C@H](CCCNC(=N)N)NC(=O)[C@H](CC(=O)O)NC(=O)[C@@H]2CCCN2C1=O` [compound 848] gave an IC50 ([1]; use-dependent block, hNav1.3) of 0.6 µM, an IC50 [2, 4] of 4.5 µM and an IC50 ([3]; use-dependent block, hNav1.5) of over 5 µM.
`CC[C@H](C)[C@@H]1NC(=O)[C@@H]2CSSC[C@@H]3NC(=O)[C@H](C(C)C)NC(=O)[C@H](CC(C)C)NC(=O)[C@H](CC(N)=O)NC(=O)[C@@H]4CCCN4C(=O)[C@H](CCCNC(=N)N)NC(=O)[C@H](CSSC[C@H](NC(=O)[C@@H](N)CC(=O)O)C(=O)N[C@@H](CC(C)C)C(=O)NCC(=O)N[C@@H](Cc4ccccc4)C(=O)N[C@@H](CCSC)C(=O)N[C@@H](CCCNC(=N)N)C(=O)N[C@@H](CCCCN)C(=O)N2)NC(=O)[C@H](CSSC[C@@H](C(=O)N[C@@H](CCCCN)C(=O)N[C@@H](Cc2ccc(O)cc2)C(=O)N[C@H](C(=O)N[C@@H](Cc2ccccc2)C(N)=O)C(C)C)NC(=O)[C@H](Cc2c[nH]c4ccccc24)NC(=O)[C@H](CCCCN)NC(=O)[C@H](Cc2c[nH]cn2)NC(=O)[C@H](Cc2ccc(C(=O)O)cc2)NC(=O)[C@H](CCCNC(=N)N)NC(=O)[C@H](CO)NC3=O)NC(=O)[C@H](CCCCN)NC(=O)[C@H](CC(=O)O)NC(=O)[C@H](CC(N)=O)NC(=O)[C@H](CC(=O)O)NC(=O)[C@@H]2CCCN2C1=O` [compound 350] (H-DCLGFMRKCIPDNDKCCRPNLVCSR[Phe(4-COOH)]HKWCKYVF-NH2; disulfide 2-17, 9-23, 16-30) was tested, and the IC50 ([1]; Table 22, use, […]) was 2.62 µM, the IC50 ([2]; Table 22, IonWorks Quattro, use, […], read-out: IWQ Use Nav1.7) was 0.4 µM and the IC50 ([3]; Table 22, use, […]) was 6.46 µM.
`CC[C@H](C)[C@@H]1NC(=O)[C@@H]2CSSC[C@@H]3NC(=O)[C@H](C(C)C)NC(=O)[C@H](CC(C)C)NC(=O)[C@H](CC(N)=O)NC(=O)[C@@H]4CCCN4C(=O)[C@H](CCCNC(=N)N)NC(=O)[C@H](CSSC[C@H](NC(=O)[C@@H](N)CC(=O)O)C(=O)N[C@@H](CC(C)C)C(=O)NCC(=O)N[C@@H](Cc4ccccc4)C(=O)N[C@@H](CCSC)C(=O)N[C@@H](CCCNC(=N)N)C(=O)N[C@@H](CCCCN)C(=O)N2)NC(=O)[C@H](CSSC[C@@H](C(=O)N[C@@H](CCCCN)C(=O)N[C@@H](CO)C(=O)N[C@H](C(=O)N[C@@H](Cc2ccccc2)C(N)=O)C(C)C)NC(=O)[C@H](Cc2c[nH]c4ccccc24)NC(=O)[C@H](CCCCN)NC(=O)[C@H](Cc2c[nH]cn2)NC(=O)[C@H]([C@@H](C)O)NC(=O)[C@H](CCCNC(=N)N)NC(=O)[C@H](CO)NC3=O)NC(=O)[C@H](CCCCN)NC(=O)[C@H](CC(=O)O)NC(=O)[C@H](CC(N)=O)NC(=O)[C@H](CC(=O)O)NC(=O)[C@@H]2CCCN2C1=O` [compound 382] (H-DCLGFMRKCIPDNDKCCRPNLVCSRTHKWCKSVF-NH2; disulfide 2-17, 9-23, 16-30) showed an IC50 ([1]; Table 25, use, […]) of 1.47 µM, an IC50 ([2]; Table 25, IonWorks Quattro, use, […], read-out: IWQ Use Nav1.7) of 3.95 µM and an IC50 ([3]; Table 25, use, […]) of over 5 µM.
`CC[C@H](C)[C@@H]1NC(=O)[C@@H]2CSSC[C@@H]3NC(=O)[C@H](C(C)C)NC(=O)[C@H](CC(C)C)NC(=O)[C@H](CC(N)=O)NC(=O)[C@@H]4CCCN4C(=O)[C@H](CCCNC(=N)N)NC(=O)[C@H](CSSC[C@H](NC(=O)[C@@H](N)CC(=O)O)C(=O)N[C@@H](CC(C)C)C(=O)NCC(=O)N[C@@H](C)C(=O)N[C@@H](CCSC)C(=O)N[C@@H](CCCNC(=N)N)C(=O)N[C@@H](CCCCN)C(=O)N2)NC(=O)[C@H](CSSC[C@@H](C(=O)N[C@@H](CCCCN)C(=O)N[C@@H](Cc2ccc(O)cc2)C(=O)N[C@H](C(=O)N[C@@H](Cc2ccccc2)C(N)=O)C(C)C)NC(=O)[C@H](Cc2c[nH]c4ccccc24)NC(=O)[C@H](CCSC)NC(=O)[C@H](Cc2c[nH]cn2)NC(=O)[C@H]([C@@H](C)O)NC(=O)[C@H](CCCNC(=N)N)NC(=O)[C@H](CO)NC3=O)NC(=O)[C@H](CCCCN)NC(=O)[C@H](CC(=O)O)NC(=O)[C@H](CC(N)=O)NC(=O)[C@H](CC(=O)O)NC(=O)[C@@H]2CCCN2C1=O` [compound 770] (H-DCLGAMRKCIPDNDKCCRPNLVCSRTHMWCKYVF-NH2; disulfide 2-17, 9-23, 16-30) gave an IC50 ([1]; use-dependent block, hNav1.3) of 4.1 µM, an IC50 [2, 4] of 1 µM and an IC50 ([3]; use-dependent block, hNav1.5) of 45.4 µM.
Work on `CC[C@H](C)[C@@H]1NC(=O)[C@@H]2CSSC[C@@H]3NC(=O)[C@H](C(C)C)NC(=O)[C@H](CC(C)C)NC(=O)[C@H](CC(N)=O)NC(=O)[C@@H]4CCCN4C(=O)[C@H](CCCNC(=N)N)NC(=O)[C@H](CSSC[C@H](NC(=O)[C@@H](N)CC(=O)O)C(=O)N[C@@H](CC(C)C)C(=O)NCC(=O)N[C@@H](CO)C(=O)N[C@@H](CC(C)C)C(=O)N[C@@H](CCCNC(=N)N)C(=O)N[C@@H](CCCCN)C(=O)N2)NC(=O)[C@H](CSSC[C@@H](C(=O)N[C@@H](CCCCN)C(=O)N[C@@H](Cc2ccc(O)cc2)C(=O)N[C@H](C(=O)N[C@@H](Cc2ccccc2)C(N)=O)C(C)C)NC(=O)[C@H](Cc2c[nH]c4ccccc24)NC(=O)[C@H](CCCCN)NC(=O)[C@H](Cc2c[nH]cn2)NC(=O)[C@H]([C@@H](C)O)NC(=O)[C@H](CCCNC(=N)N)NC(=O)[C@H](CO)NC3=O)NC(=O)[C@H](CCCCN)NC(=O)[C@H](CC(=O)O)NC(=O)[C@H](CC(N)=O)NC(=O)[C@H](CC(=O)O)NC(=O)[C@@H]2CCCN2C1=O` [compound 643] (H-DCLGSLRKCIPDNDKCCRPNLVCSRTHKWCKYVF-NH2; disulfide 2-17, 9-23, 16-30) yielded an IC50 ([1]; use-dependent protocol, hNav1.3) of 3.2 µM, an IC50 ([2]; IonWorks Quattro, use-dependent protocol, hNav1.7, read-out: IWQ Use Nav1.7) of 1.3 µM and an IC50 ([3]; use-dependent protocol, hNav1.5) of over 5 µM.
In the case of `CSCC[C@@H]1NC(=O)[C@H](Cc2ccccc2)NC(=O)CNC(=O)[C@H](CC(C)C)NC(=O)[C@@H](NC(=O)[C@@H](N)CC(=O)O)CSSC[C@@H]2NC(=O)[C@@H]3CSSC[C@@H](C(=O)N[C@@H](CCCCN)C(=O)N[C@@H](Cc4ccc(O)cc4)C(=O)N[C@H](C(=O)N[C@@H](Cc4ccccc4)C(N)=O)C(C)C)NC(=O)[C@H](Cc4c[nH]c5ccccc45)NC(=O)[C@H](CCCCN)NC(=O)[C@H](Cc4cnc[nH]4)NC(=O)[C@H]([C@@H](C)O)NC(=O)[C@H](CCCNC(=N)N)NC(=O)[C@H](CO)NC(=O)[C@H](CSSC[C@H](NC(=O)[C@H](CCCCN)NC(=O)[C@H](CCCNC(=N)N)NC1=O)C(=O)N[C@@H](CC(N)=O)C(=O)N1CCC[C@H]1C(=O)N[C@@H](CC(=O)O)C(=O)N[C@@H](CC(N)=O)C(=O)N[C@@H](CC(=O)O)C(=O)N[C@@H](CCCCN)C(=O)N3)NC(=O)[C@H](C(C)C)NC(=O)[C@H](CC(C)C)NC(=O)[C@H](CC(N)=O)NC(=O)[C@@H]1CCCN1C(=O)[C@H](CCCNC(=N)N)NC2=O` [compound 90] (H-DCLGFMRKCNPDNDKCCRPNLVCSRTHKWCKYVF-NH2; disulfide 2-17, 9-23, 16-30), the IC50 ([1]; Use) is reported as 0.19 µM, the IC50 [2] is reported as 0.49 µM and the IC50 ([3]; Use) is reported as 14.1 µM.
`CC[C@H](C)[C@@H]1NC(=O)[C@@H]2CSSC[C@@H]3NC(=O)[C@H](C(C)C)NC(=O)[C@H](CC(C)C)NC(=O)[C@H](CC(N)=O)NC(=O)[C@@H]4CCCN4C(=O)[C@H](CCCNC(=N)N)NC(=O)[C@H](CSSC[C@H](NC(=O)[C@@H](N)CC(=O)O)C(=O)N[C@@H](CC(C)C)C(=O)NCC(=O)N[C@@H](Cc4ccccc4)C(=O)N[C@@H](CO)C(=O)N[C@@H](CCCNC(=N)N)C(=O)N[C@@H](CCCCN)C(=O)N2)NC(=O)[C@H](CSSC[C@@H](C(=O)N[C@@H](CCCCN)C(=O)N[C@@H](Cc2ccc(O)cc2)C(=O)N[C@H](C(=O)N[C@@H](Cc2ccccc2)C(N)=O)C(C)C)NC(=O)[C@H](Cc2c[nH]c4ccccc24)NC(=O)[C@H](CCCCN)NC(=O)[C@H](Cc2c[nH]cn2)NC(=O)[C@H]([C@@H](C)O)NC(=O)[C@H](CCCNC(=N)N)NC(=O)[C@H](CO)NC3=O)NC(=O)[C@H](CCCCN)NC(=O)[C@H](CC(=O)O)NC(=O)[C@H](CC(N)=O)NC(=O)[C@H](CC(=O)O)NC(=O)[C@@H]2CCCN2C1=O` [SEQ ID NO: 284] (H-DCLGFSRKCIPDNDKCCRPNLVCSRTHKWCKYVF-NH2; disulfide 2-17, 9-23, 16-30) gave an IC50 [1, 5] of 0.71 µM, an IC50 ([2]; IonWorks Quattro, clamped to −110 mV, depolarized to −10 mV, 5 min after compound, n=2, read-out: IWQ Use Nav1.7) of 1.02 µM and an IC50 [3, 5] of 16.9 µM.
